Assay results taken from US20240043386A1, “Modulators of the Cystic Fibrosis Transmembrane Conductance Regulator Protein and Methods of Use” (AbbVie Global Enterprises Ltd., priority 2021, published 2024).
Read-outs that look alike come from different tables or passages of the source.

Legend:
F508del/F508del CFTR = target: T1, F508del/F508del CFTR (Homo sapiens, UniProt P13569, DEL508-508); assay: Trans-Epithelial Current Clamp (TECC) assay using primary human bronchial epithelial cells; type: cell-based; conditions: for Emax (% Dual): maximum percent activity relative to positive control (co-corrector 0.15 μM + potentiator 0.45 μM = 100%), primary hBE cells F508del/F508del; for EC50: primary hBE cells homozygous F508del/F508del, test C2 corrector with co-corrector and potentiator, 18-24 hours at 37° C., equivalent CFTR current (IEQ)/AUC
T1 construct: cells isolated from CF patients with the homozygous mutation; endogenous in cells; host or cells: primary human bronchial epithelial (hBE) cells from CF patients homozygous for F508del
T1 sequence (P13569 with tags, fused parts or gaps DEL508-508): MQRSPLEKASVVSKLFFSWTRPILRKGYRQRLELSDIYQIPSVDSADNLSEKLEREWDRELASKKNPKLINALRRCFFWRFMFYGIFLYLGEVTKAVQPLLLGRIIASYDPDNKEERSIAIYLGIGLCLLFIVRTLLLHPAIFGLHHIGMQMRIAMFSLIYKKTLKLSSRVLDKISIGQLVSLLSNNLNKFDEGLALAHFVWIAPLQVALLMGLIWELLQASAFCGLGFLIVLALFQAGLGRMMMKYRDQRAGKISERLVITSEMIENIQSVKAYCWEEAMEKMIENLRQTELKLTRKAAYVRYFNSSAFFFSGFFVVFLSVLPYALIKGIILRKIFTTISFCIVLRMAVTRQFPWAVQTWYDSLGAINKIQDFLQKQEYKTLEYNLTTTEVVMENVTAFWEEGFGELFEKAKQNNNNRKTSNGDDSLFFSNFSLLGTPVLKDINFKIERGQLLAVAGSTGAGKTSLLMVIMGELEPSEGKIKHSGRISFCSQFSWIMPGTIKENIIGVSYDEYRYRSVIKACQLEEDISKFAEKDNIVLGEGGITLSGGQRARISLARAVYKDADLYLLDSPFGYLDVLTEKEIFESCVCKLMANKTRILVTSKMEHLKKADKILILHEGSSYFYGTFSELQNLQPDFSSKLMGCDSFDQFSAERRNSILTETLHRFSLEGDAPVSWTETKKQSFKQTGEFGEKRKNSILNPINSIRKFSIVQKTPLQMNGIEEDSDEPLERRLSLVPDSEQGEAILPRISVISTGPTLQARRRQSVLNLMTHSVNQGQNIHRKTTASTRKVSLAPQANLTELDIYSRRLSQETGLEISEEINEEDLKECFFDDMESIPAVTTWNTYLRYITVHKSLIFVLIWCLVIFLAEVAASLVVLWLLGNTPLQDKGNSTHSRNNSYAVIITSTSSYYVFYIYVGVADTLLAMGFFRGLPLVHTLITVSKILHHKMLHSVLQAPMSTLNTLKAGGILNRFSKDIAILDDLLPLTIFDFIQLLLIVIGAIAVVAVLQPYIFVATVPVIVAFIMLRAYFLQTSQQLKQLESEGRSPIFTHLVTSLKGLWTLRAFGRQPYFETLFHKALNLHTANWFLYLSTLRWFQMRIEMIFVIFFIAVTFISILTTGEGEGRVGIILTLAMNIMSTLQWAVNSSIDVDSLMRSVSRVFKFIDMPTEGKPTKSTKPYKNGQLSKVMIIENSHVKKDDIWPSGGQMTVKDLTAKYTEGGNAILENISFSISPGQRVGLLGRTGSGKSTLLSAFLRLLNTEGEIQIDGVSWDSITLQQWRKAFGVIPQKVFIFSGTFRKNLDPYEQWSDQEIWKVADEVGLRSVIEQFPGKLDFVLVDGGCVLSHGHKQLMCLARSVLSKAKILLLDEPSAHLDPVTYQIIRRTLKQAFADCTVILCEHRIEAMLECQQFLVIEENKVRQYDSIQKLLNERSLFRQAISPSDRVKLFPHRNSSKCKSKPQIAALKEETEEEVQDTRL
Summary of the method: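 Readout is the equivalent CFTR current (IEQ, from offset-corrected VT and RT) plus AUC from forskolin peak to bumetanide addition, recorded on TECC-24 at 36.5° C. Beforehand, homozygous F508del hBE cultures received correctors with co-corrector and potentiator basolaterally for 18-24 h at 37° C.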

F508delCFTR = target: T2, F508delCFTR (Homo sapiens, UniProt P13569, DEL508-508); assay: Cell Surface Expression-Horse Radish Peroxidase (CSE-HRP) assay in CFBE41o-F508delCFTR-HRP cells; type: cell-based; conditions: for EC50: CFBE41o-F508delCFTR-HRP cells, 18-24 hours at 33° C., luminescence; for Maximum % activity (with co-corrector) / Maximum % activity (without co-corrector): normalized to on-plate positive control corrector (2 μM)
T2 construct: expressed in transfected cells; host or cells: CFBE41o- human lung-derived epithelial cell line, doxycycline-inducible expression
T2 sequence (P13569 with tags, fused parts or gaps DEL508-508): as above
Summary of the method: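 Test compounds were tested alone or alongside a co-corrector (2 μM), 8-point 3-fold series from 20 or 30 μM, for 18–24 h at 33 °C on doxycycline-induced CFBE41o-F508delCFTR-HRP cells. After washing, luminol luminescence reported cell-surface HRP-tagged CFTR, normalized to the positive control (% activity). EC50 was fitted with a variable Hill slope sigmoid from triplicate plates; Z′ >0.5 required.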

[1] = with co-corrector (2 μM), read-out: EC50 (with co-corrector)
[2] = without co-corrector, read-out: EC50 (without co-corrector)

Compound | Emax (% Dual) (F508del/F508del CFTR) | EC50 (F508del/F508del CFTR) [nM] | EC50 (F508delCFTR; [1]) [nM] | Maximum % activity (with co-corrector) (F508delCFTR; with co-corrector (2 μM)) [%] | EC50 (F508delCFTR; [2]) [nM] | Maximum % activity (without co-corrector) (F508delCFTR; without co-corrector) [%]
COc1ccc(C)cc1[C@@]1(C(=O)NS(=O)(=O)c2cccc3nc(C)ccc23)C[C@H]1c1cccnc1OC [Example 49, (1R,2S)-1-(2-methoxy-5-methylphenyl)-2-(2-methoxypyridin-3-yl)-N-(2-methylquinoline-5-sulfonyl)cyclopropane-1-carboxamide] | 321 | 35.8 | 1170 |  | 1990 | 453
CCOc1cccc([C@@H]2C[C@]2(C(=O)NS(=O)(=O)c2cccc3nc(C)ccc23)c2cc(C)ccc2OC)n1 [Example 56, (1R,2R)-2-(6-ethoxypyridin-2-yl)-1-(2-methoxy-5-methylphenyl)-N-(2-methylquinoline-5-sulfonyl)cyclopropane-1-carboxamide] | 290 | 8.5 | 386 | 917 | 890 | 370
COc1ccc(C)cc1[C@]1(C(=O)NS(=O)(=O)c2cccc3nc(C)ccc23)C[C@@H]1c1cccc(C(C)C)n1 [Example 57, (1S,2S)-1-(2-methoxy-5-methylphenyl)-N-(2-methylquinoline-5-sulfonyl)-2-[6-(propan-2-yl)pyridin-2-yl]cyclopropane-1-carboxamide] | 253 | 19.2 | 510 |  | 1130 | 
CCOc1ccc([C@@H]2C[C@]2(C(=O)NS(=O)(=O)c2cccc3nc(C)ccc23)c2cc(C)ccc2OC)cn1 [Example 59, (1R,2S)-2-(6-ethoxypyridin-3-yl)-1-(2-methoxy-5-methylphenyl)-N-(2-methylquinoline-5-sulfonyl)cyclopropane-1-carboxamide] | 161 | 63.8 | 779 |  | 1520 | 438
COc1ccc(C)cc1[C@]1(C(=O)NS(=O)(=O)c2cccc3nc(C)ccc23)C[C@@H]1c1cccc(N(C)C)n1 [Example 60, (1S,2S)-2-[6-(dimethylamino)pyridin-2-yl]-1-(2-methoxy-5-methylphenyl)-N-(2-methylquinoline-5-sulfonyl)cyclopropane-1-carboxamide] | 413 | 6.7 | 1030 |  | 2140 | 
COc1ccc(C)cc1[C@]1(C(=O)NS(=O)(=O)c2cccc3nc(C)ccc23)C[C@@H]1c1ccc(C(C)C)nc1 [Example 67, (1S,2R)-1-(2-methoxy-5-methylphenyl)-N-(2-methylquinoline-5-sulfonyl)-2-[6-(propan-2-yl)pyridin-3-yl]cyclopropane-1-carboxamide] | 174 | 20.7 | 1610 | 989 | 3320 | 492
COc1ccc(C)cc1[C@]1(C(=O)NS(=O)(=O)c2cccc3nc(C)ccc23)C[C@@H]1c1ccc(N(C)C)nc1 [Example 68, (1S,2R)-2-[6-(dimethylamino)pyridin-3-yl]-1-(2-methoxy-5-methylphenyl)-N-(2-methylquinoline-5-sulfonyl)cyclopropane-1-carboxamide] | 217 | 21.1 | 1120 |  | 2760 | 657
COc1ccc(C)cc1[C@]1(C(=O)NS(=O)(=O)c2cccc3nc(C)ccc23)C[C@@H]1c1ccc(C(C)C)nn1 [Example 69, (1S,2S)-1-(2-methoxy-5-methylphenyl)-N-(2-methylquinoline-5-sulfonyl)-2-[6-(propan-2-yl)pyridazin-3-yl]cyclopropane-1-carboxamide] | 111 | > 300 | 3430 | 495 | 6010 | 170
COc1ccc(C)cc1[C@]1(C(=O)NS(=O)(=O)c2cccc3nc(C)ccc23)C[C@@H]1c1cnc(OC)c(F)c1 [Example 76, (1S,2R)-2-(5-fluoro-6-methoxypyridin-3-yl)-1-(2-methoxy-5-methylphenyl)-N-(2-methylquinoline-5-sulfonyl)cyclopropane-1-carboxamide] | 269 | 2.4 | 989 |  | 2140 | 
COc1ccc(C)cc1[C@]1(C(=O)NS(=O)(=O)c2cccc3nc(C)ccc23)C[C@@H]1c1cccc(C(F)F)n1 [Example 77, (1S,2S)-2-[6-(difluoromethyl)pyridin-2-yl]-1-(2-methoxy-5-methylphenyl)-N-(2-methylquinoline-5-sulfonyl)cyclopropane-1-carboxamide] | 289 | 0.4 | 327 |  | 1660 | 
COc1ccc(C)cc1[C@]1(C(=O)NS(=O)(=O)c2cccc3nc(C)ccc23)C[C@@H]1c1cnc(OC)c(OC)n1 [Example 80, (1S,2S)-2-(5,6-dimethoxypyrazin-2-yl)-1-(2-methoxy-5-methylphenyl)-N-(2-methylquinoline-5-sulfonyl)cyclopropane-1-carboxamide] | 275 | 15.8 | 461 |  | 1320 | 925

Further compounds by falling EC50 (F508del/F508del CFTR), results first:

Emax (% Dual) (F508del/F508del CFTR) | EC50 (F508del/F508del CFTR) [nM] | EC50 (F508delCFTR; [1]) [nM] | Maximum % activity (with co-corrector) (F508delCFTR; with co-corrector (2 μM)) [%] | EC50 (F508delCFTR; [2]) [nM] | Maximum % activity (without co-corrector) (F508delCFTR; without co-corrector) [%] | Compound
173 | 94.4 | 3980 | 876 | 5780 | 476 | COc1ccc(C)cc1[C@]1(C(=O)NS(=O)(=O)c2cccc3nc(C)ccc23)C[C@@H]1c1ccc(C)nc1C [Example 81, (1S,2R)-2-(2,6-dimethylpyridin-3-yl)-1-(2-methoxy-5-methylphenyl)-N-(2-methylquinoline-5-sulfonyl)cyclopropane-1-carboxamide]
210 | 52.2 | 351 |  | 730 | 937 | COc1cnc([C@H]2C[C@@]2(C(=O)NS(=O)(=O)c2cccc3nc(C)ccc23)c2cc(C)ccc2OC)c(OC)n1 [Example 82, (1S,2S)-2-(3,5-dimethoxypyrazin-2-yl)-1-(2-methoxy-5-methylphenyl)-N-(2-methylquinoline-5-sulfonyl)cyclopropane-1-carboxamide]
246 | 31.4 | 2120 |  | 3910 |  | CCOc1ccc([C@H]2C[C@@]2(C(=O)NS(=O)(=O)c2cccc3nc(C)ccc23)c2cc(C)ccc2OC)cn1 [Example 58, (1S,2R)-2-(6-ethoxypyridin-3-yl)-1-(2-methoxy-5-methylphenyl)-N-(2-methylquinoline-5-sulfonyl)cyclopropane-1-carboxamide]
193 | 16.6 | 865 | 982 | 1410 | 384 | COc1cccc([C@@H]2C[C@]2(C(=O)NS(=O)(=O)c2cccc3nc(C)ccc23)c2cc(C)ccc2OC)n1 [Example 44, (1R,2R)-1-(2-methoxy-5-methylphenyl)-2-(6-methoxypyridin-2-yl)-N-(2-methylquinoline-5-sulfonyl)cyclopropane-1-carboxamide]
359 | 13.6 | 1540 |  | 3330 | 651 | COc1ccc([C@H]2C[C@@]2(C(=O)NS(=O)(=O)c2cccc3nc(C)ccc23)c2cc(C)ccc2OC)c(C)n1 [Example 72, (1S,2R)-1-(2-methoxy-5-methylphenyl)-2-(6-methoxy-2-methylpyridin-3-yl)-N-(2-methylquinoline-5-sulfonyl)cyclopropane-1-carboxamide]
291 | 11.8 | 2600 |  | 4230 | 482 | COc1ccc(C)cc1[C@]1(C(=O)NS(=O)(=O)c2cccc3nc(C)ccc23)C[C@@H]1c1ccc(C(F)F)nc1 [Example 70, (1S,2R)-2-[6-(difluoromethyl)pyridin-3-yl]-1-(2-methoxy-5-methylphenyl)-N-(2-methylquinoline-5-sulfonyl)cyclopropane-1-carboxamide]
341 | 5.86 | 339 |  | 1000 |  | CCOc1cccc([C@H]2C[C@@]2(C(=O)NS(=O)(=O)c2cccc3nc(C)ccc23)c2cc(C)ccc2OC)n1 [Example 55, (1S,2S)-2-(6-ethoxypyridin-2-yl)-1-(2-methoxy-5-methylphenyl)-N-(2-methylquinoline-5-sulfonyl)cyclopropane-1-carboxamide]
